Assay results: patent US20070059359A1, “Immediate-release and high-drug-load pharmaceutical formulations of non-micronised (4-chlorophenyl)[4-(4-pyridylmethyl)phthalazin-1-yl] and salts thereof” (priority 2005, published 2007)

Assays:
VEGFR kinases = conditions: not dependent on a specific ligand; cited from earlier work
[1] = Hazard classification, internal workspace limit; conditions: classified as being hazardous

| internal workspace limit [1] [mg/m^3] | SMILES | inhibition of VEGFR kinases (VEGFR kinases) |
| --- | --- | --- |
|  | Clc1ccc(Nc2nnc(Cc3ccncc3)c3ccccc23)cc1 [(4-chlorophenyl)[4-(4-pyridylmethyl)-phthalazin-1-yl]] | inhibitor of all three VEGFR kinases |
| 0.1 | Clc1ccc(Nc2nnc(Cc3ccncc3)c3ccccc23)cc1 [pynasunate, (4-chlorophenyl)[4-(4-pyridylmethyl)-phthalazin-1-yl]ammonium hydrogen succinate] |  |
